The values that follow come from patent publication US10669545B2, “Tumor cell malignant transformation suppressor and anti-tumor agent” (JAPAN SCIENCE AND TECHNOLOGY AGENCY, priority 2015, dated 2020).

The data set has as its system phosphorylated ERK1/2 (Thr202/204) (pERK). As to the kind of experiment: Western blotting of phosphorylated ERK1/2. The class given is cell-based, human. The settings on record: vemR-3 cells; PLX4032 or DMSO treatment; siRNA vs siNeg. Here is the method: Western blotting was performed in the same manner as above except that anti-pAKT antibody (manufactured by Cell Signaling), anti-AKT antibody (manufactured by Cell Signaling), anti-pERK antibody (manufactured by Cell Signaling), anti-ERK antibody (manufactured by Cell Signaling), and anti-β-actin antibody (manufactured by Sigma) were used.
vemR-1 to 3 cells and HT144 cells were treated with DMSO or PLX4032 solution (which was dissolved in DMSO to become 5 μM) for 48 hours, and the level of pAKT, AKT, pERK, ERK, and β-actin of these cells was assessed by western blotting in the same manner as Example 8.
A375 cells were treated in a medium in which a concentration of a FAK inhibitor I (manufactured by Calbiochem) was 0, 1, 2.5, or 5 μM for 24 hours, and the level of ZIC5, pro-PDGFD, pERK, and β-actin was measured by western blotting. Western blotting was performed in the same manner as above except that anti-ZIC5 antibody (manufactured by Aviva systems biology), anti-PDGFD antibody (manufactured by Santa Cruz), anti-pERK antibody (manufactured by Cell Signaling), and anti-β-actin antibody (manufactured by Sigma) were used.
A375 cells were treated in a medium in which a concentration of Interleukin-6 (IL-6) (manufactured by Novus Biologicals) was 0, 10, or 20 ng/mL for 24 hours, and then western blotting was performed to assess the level of ZIC5, pro-PDGFD, pSTAT3, STAT3, and GAPDH. […]
Background: In western blotting, separated proteins are transferred to a membrane and probed.

Take “siPDGFD#1: siRNA for PDGFD gene; targeting sequence CAGGAATTACTCGGTCAATAT (SEQ. NO. 28) (listed as DNA, chemistry not given here)”: the “pERK level (inactivation of ERK)” value is on record as “the pERK level decreased”.
